Results published in US20260265195A1, “SARM1 MODULATORS, PREPARATIONS, AND USES THEREOF” (SIRONAX LTD, priority 2022, published 2026).

Target: T1, SARM1 (50-724) (Homo sapiens, UniProt Q6SZW1)
T1 construct: Purified SARM1 (50-724) with a final concentration of 2 nM
T1 sequence (Q6SZW1 50-724): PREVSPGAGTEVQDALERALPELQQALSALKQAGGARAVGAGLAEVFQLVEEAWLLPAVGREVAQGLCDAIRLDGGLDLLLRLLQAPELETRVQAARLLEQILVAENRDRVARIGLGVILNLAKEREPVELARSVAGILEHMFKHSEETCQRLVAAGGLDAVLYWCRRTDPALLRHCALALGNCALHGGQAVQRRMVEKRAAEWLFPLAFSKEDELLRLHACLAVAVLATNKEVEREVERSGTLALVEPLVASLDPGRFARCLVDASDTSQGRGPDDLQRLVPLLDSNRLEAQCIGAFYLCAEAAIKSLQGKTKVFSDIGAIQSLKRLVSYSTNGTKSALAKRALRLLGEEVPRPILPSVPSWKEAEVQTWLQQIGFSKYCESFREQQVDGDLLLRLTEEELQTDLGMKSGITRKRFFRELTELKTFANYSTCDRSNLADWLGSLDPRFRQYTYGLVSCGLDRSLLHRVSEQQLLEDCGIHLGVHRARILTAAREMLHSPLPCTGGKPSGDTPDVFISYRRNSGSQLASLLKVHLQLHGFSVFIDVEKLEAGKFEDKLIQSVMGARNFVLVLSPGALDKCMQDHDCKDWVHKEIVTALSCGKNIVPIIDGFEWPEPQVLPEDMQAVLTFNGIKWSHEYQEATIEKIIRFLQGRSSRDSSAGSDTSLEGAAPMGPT
Assay: SARM1 (50-724) enzymatic assay (NMN-activated NAD+ hydrolysis, LC-MS/MS readout)
Assay type: biochemical
Conditions: purified SARM1 (50-724) 2 nM, 200 μM NMN activator, 100 μM NAD+ substrate, 1 h at room temperature, read-out: IC50 (SARM1 inhibitory activity)
Summary of the method: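 Purified human SARM1 (50-724), 2 nM final in DPBS, pre-incubated 15 min at RT with compound (1% DMSO), then started with 200 μM NMN activator and 100 μM NAD+. After 1 h at RT, quenched with 70% acetonitrile; analysed by LC-MS/MS.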

Compound | IC50
Cc1ccc2[nH]c(C(=O)N(C)C3CCCC3)nc2c1C#N [Compound 97, 4-cyano-N-cyclopentyl-N,5-dimethyl-1H-benzo[d]imidazole-2-carboxamide] | 101 to 500 nM
Cc1ccc2[nH]c(C(=O)N(CCO)c3cccc(Cl)c3Cl)nc2c1 [Compound 98, N-(2,3-dichlorophenyl)-N-(2-hydroxyethyl)-5-methyl-1H-benzo[d]imidazole-2-carboxamide] | ≤ 100 nM
CN(C(=O)c1nc2c(S(C)(=O)=O)cccc2[nH]1)C1CCCC1 [Compound 99, N-cyclopentyl-N-methyl-4-(methylsulfonyl)-1H-benzo[d]imidazole-2-carboxamide] | ≥ 1000 nM
O=C(c1nc2cc(C(F)(F)F)ccc2[nH]1)N(CCO)c1nccc(Cl)c1Cl [Compound 100, N-(3,4-dichloropyridin-2-yl)-N-(2-hydroxyethyl)-5-(trifluoromethyl)-1H-benzo[d]imidazole-2-carboxamide] | ≤ 100 nM
CN(C(=O)c1nc2c(N3CCOCC3)cccc2[nH]1)C1CCCC1 [Compound 101, N-cyclopentyl-N-methyl-4-morpholino-1H-benzo[d]imidazole-2-carboxamide] | ≥ 1000 nM
CC1CCC(C)C1N(CCO)C(=O)c1nc2cc(C(F)(F)F)ccc2[nH]1 (stereo not shown) [Compound 102, N-(2,5-dimethylcyclopentyl)-N-(2-hydroxyethyl)-5-(trifluoromethyl)-1H-benzo[d]imidazole-2-carboxamide] | ≤ 100 nM
O=C(c1nc2cc(C(F)(F)F)ccc2[nH]1)N(CCO)c1cccc(Cl)c1Cl [Compound 103, N-(2,3-dichlorophenyl)-(2-hydroxyethyl)-5-(trifluoromethyl)-1H-benzo[d]imidazole-2-carboxamide] | ≤ 100 nM
CN(C(=O)c1nc2cc(Br)ccc2[nH]1)C1CCCC1 [Compound 104, 5-bromo-N-cyclopentyl-N-methyl-1H-benzo[d]imidazole-2-carboxamide] | 101 to 500 nM
O=C(c1nc2cc(C(F)(F)F)ccc2[nH]1)N(CC1COC1)c1cccc(Cl)c1Cl [Compound 105, N-(2,3-dichlorophenyl)-N-(oxetan-3-ylmethyl)-5-(trifluoromethyl)-1H-benzo[d]imidazole-2-carboxamide] | ≤ 100 nM
O=C(c1nc2cc(C(F)(F)F)ccc2[nH]1)N(CC(F)(F)C(=O)O)c1cccc(Cl)c1Cl [Compound 106, 3-(N-(2,3-dichlorophenyl)-6-(trifluoromethyl)-1H-benzo[d]imidazole-2-carboxamido)-2,2-difluoropropanoic acid] | ≤ 100 nM
NC(=O)C(F)(F)CN(C(=O)c1nc2cc(C(F)(F)F)ccc2[nH]1)c1cccc(Cl)c1Cl [Compound 107, N-(3-amino-2,2-difluoro-3-oxopropyl)-N-(2,3-dichlorophenyl)-5-(trifluoromethyl)-1H-benzo[d]imidazole-2-carboxamide] | ≤ 100 nM
CS(=O)(=O)c1ccc2[nH]c(C(=O)N(CCO)c3cccc(Cl)c3Cl)nc2c1 [Compound 108, N-(2,3-dichlorophenyl)-N-(2-hydroxyethyl)-5-(methylsulfonyl)-1H-benzo[d]imidazole-2-carboxamide] | 101 to 500 nM
N#Cc1cc(Cl)c(Cl)c(N(CCO)C(=O)c2nc3cc(C(F)(F)F)ccc3[nH]2)c1 [Compound 109, N-(2,3-dichloro-5-cyanophenyl)-N-(2-hydroxyethyl)-5-(trifluoromethyl)-1H-benzo[d]imidazole-2-carboxamide] | 101 to 500 nM
Cn1nc(N(CCO)C(=O)c2nc3cc(C(F)(F)F)ccc3[nH]2)c(Cl)c1Cl [Compound 110, N-(4,5-dichloro-1-methyl-1H-pyrazol-3-yl)-N-(2-hydroxyethyl)-5-(trifluoromethyl)-1H-benzo[d]imidazole-2-carboxamide] | ≤ 100 nM
Cn1nc(N(CC2COC2)C(=O)c2nc3cc(C(F)(F)F)ccc3[nH]2)c(Cl)c1Cl [Compound 111, N-(4,5-dichloro-1-methyl-1H-pyrazol-3-yl)-N-(oxetan-3-ylmethyl)-5-(trifluoromethyl)-1H-benzo[d]imidazole-2-carboxamide] | ≤ 100 nM
O=C(c1nc2cc(C(F)(F)F)ccc2[nH]1)N(CC(F)(F)CO)c1cccc(Cl)c1Cl [Compound 112, N-(2,3-dichlorophenyl)-N-(2,2-difluoro-3-hydroxypropyl)-5-(trifluoromethyl)-1H-benzo[d]imidazole-2-carboxamide] | ≤ 100 nM
CN(C(=O)c1nc2c(C3COC3)cccc2[nH]1)C1CCCC1 [Compound 113, N-cyclopentyl-N-methyl-4-(oxetan-3-yl)-1H-benzo[d]imidazole-2-carboxamide] | ≥ 1000 nM

Compound | IC50
O=C(c1nc2cc(C(F)(F)F)ccc2[nH]1)N(CC1CNC1)c1cccc(Cl)c1Cl [Compound 114, N-(azetidin-3-ylmethyl)-N-(2,3-dichlorophenyl)-5-(trifluoromethyl)-1H-benzo[d]imidazole-2-carboxamide] | 101 to 500 nM
N#Cc1ccc(Cl)c(Cl)c1N(CCO)C(=O)c1nc2cc(C(F)(F)F)ccc2[nH]1 [Compound 115, N-(2,3-dichloro-6-cyanophenyl)-N-(2-hydroxyethyl)-5-(trifluoromethyl)-1H-benzo[d]imidazole-2-carboxamide] | ≤ 100 nM
O=C(c1nc2cc(C(F)(F)F)ccc2[nH]1)N(CCN1CC(F)(F)C1)c1cccc(Cl)c1Cl [Compound 116, N-(2,3-dichlorophenyl)-N-(2-(3,3-difluoroazetidin-1-yl)ethyl)-5-(trifluoromethyl)-1H-benzo[d]imidazole-2-carboxamide] | ≤ 100 nM
O=C(c1nc2cc(C(F)(F)F)ccc2[nH]1)N(c1cccc(Cl)c1Cl)C1CNC1 [Compound 117, N-(azetidin-3-yl)-N-(2,3-dichlorophenyl)-5-(trifluoromethyl)-1H-benzo[d]imidazole-2-carboxamide] | ≥ 1000 nM
Cc1c(Cl)cccc1N(C)C(=O)c1nc2cc(C(F)(F)F)ccc2[nH]1 [Compound 118, N-(3-chloro-2-methylphenyl)-N-methyl-5-(trifluoromethyl)-1H-benzo[d]imidazole-2-carboxamide] | ≤ 100 nM
O=C(c1nc2cc(-c3ccn[nH]3)ccc2[nH]1)N(CC1COC1)c1cccc(Cl)c1Cl [Compound 119] | 101 to 500 nM
CN(C(=O)c1nc2cc(C(F)(F)F)ccc2[nH]1)c1cc(F)cc(Cl)c1Cl [Compound 120, N-(2,3-dichloro-5-fluorophenyl)-N-methyl-5-(trifluoromethyl)-1H-benzo[d]imidazole-2-carboxamido] | ≤ 100 nM
CNCCN(C(=O)c1nc2cc(C(F)(F)F)ccc2[nH]1)c1cccc(Cl)c1Cl [Compound 121, N-(2,3-dichlorophenyl)-N-(2-(methylamino)ethyl)-5-(trifluoromethyl)-1H-benzo[d]imidazole-2-carboxamide] | 101 to 500 nM
Cc1cc(-c2ccc3[nH]c(C(=O)N(CC4COC4)c4cccc(Cl)c4Cl)nc3c2)[nH]n1 [Compound 122] | 101 to 500 nM
Cc1ccc2[nH]c(C(=O)N(C)c3cccc(Cl)c3Cl)nc2c1 [Compound 123, N-(2,3-dichlorophenyl)-N,5-dimethyl-1H-benzimidazole-2-carboxamide] | ≤ 100 nM
Cc1cn[nH]c1-c1ccc2[nH]c(C(=O)N(CC3COC3)c3cccc(Cl)c3Cl)nc2c1 [Compound 124] | ≥ 1000 nM
Cc1cccc(N(C)C(=O)c2nc3cc(C(F)(F)F)ccc3[nH]2)c1Cl [Compound 125, N-(2-chloro-3-methylphenyl)-N-methyl-5-(trifluoromethyl)-1H-benzo[d]imidazole-2-carboxamide] | ≤ 100 nM
Cn1nc(Cl)c(Cl)c1N(CCO)C(=O)c1nc2cc(C(F)(F)F)ccc2[nH]1 [Compound 126, N-(3,4-dichloro-1-methyl-1H-pyrazol-5-yl)-N-(2-hydroxyethyl)-5-(trifluoromethyl)-1H-benzo[d]imidazole-2-carboxamide] | ≥ 1000 nM
O=C(c1nc2cc(C(F)(F)F)ccc2[nH]1)N(c1cn[nH]c1)c1cccc(Cl)c1Cl [Compound 127, N-(2,3-dichlorophenyl)-N-(1H-pyrazol-4-yl)-5-(trifluoromethyl)-1H-benzo[d]imidazole-2-carboxamide] | ≤ 100 nM
O=C(c1nc2cc(C(F)(F)F)ccc2[nH]1)N(CCOCCO)c1cccc(Cl)c1Cl [Compound 128, N-(2,3-dichlorophenyl)-N-(2-(2-hydroxyethoxy)ethyl)-5-(trifluoromethyl)-1H-benzo[d]imidazole-2-carboxamide] | ≤ 100 nM
CS(=O)(=O)CCCN(C(=O)c1nc2cc(C(F)(F)F)ccc2[nH]1)c1cccc(Cl)c1Cl [Compound 129, N-(2,3-dichlorophenyl)-N-(3-(methylsulfonyl)propyl)-5-(trifluoromethyl)-1H-benzo[d]imidazole-2-carboxamide] | ≤ 100 nM
O=C(c1nc2cc(C(F)(F)F)cc(F)c2[nH]1)N(c1cccc(F)c1Cl)C1CCS(=O)(=O)CC1 [Compound 130] | ≤ 100 nM
